Columns and labels:
[1] = test system: duck salad; experiment: Test B flood test duck salad; format: in vivo, Heteranthera limosa
How it was run: (§1)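 Each value is a visual injury score relative to controls, with 10 meaning complete control and 0 no effect. Evaluation took place twelve to sixteen days after the 2-leaf-stage plants were treated and kept in the greenhouse.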

[2] = test system: blackgrass; experiment: Test B pre/postemergence blackgrass; format: in vivo, Alopecurus myosuroides
How it was run: (§2)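 Test chemicals in a non-phytotoxic solvent mixture with surfactant were sprayed preemergence onto planted seeds and postemergence onto plants 2 to 18 cm tall (1- to 4-leaf stage). After twelve to sixteen days in a greenhouse, injury was visually rated against untreated controls from 0 (no effect) to 10 (complete control).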

[3] = test system: surinam grass; experiment: Test B pre/postemergence surinam grass; format: in vivo, Brachiaria decumbens
How it was run: as §2

[4] = test system: crabgrass; experiment: Test B pre/postemergence crabgrass; format: in vivo, Digitaria sanguinalis
How it was run: as §2

[5] = test system: soybean; experiment: Test B pre/postemergence soybean; format: in vivo, Glycine max
How it was run: as §2

[6] = test system: giant foxtail; experiment: Test B pre/postemergence giant foxtail; format: in vivo, Setaria faberii
How it was run: as §2

[7] = test system: cocklebur; experiment: Test B pre/postemergence cocklebur; format: in vivo, Xanthium strumarium
How it was run: as §2

[8] = test system: purple nutsedge; experiment: Test B pre/postemergence purple nutsedge; format: in vivo, Cyperus rotundus
How it was run: as §2

[9] = test system: rice; experiment: Test B flood test rice; format: in vivo, Oryza sativa
How it was run: as §1

[10] = test system: bamyardgrass; experiment: Test B flood test barnyardgrass; format: in vivo, Echinochloa crus-galli
How it was run: as §1

[11] = test system: morningglory; experiment: Test B pre/postemergence morningglory; format: in vivo, Ipomoea hederacea
How it was run: as §2

[12] = test system: wheat; experiment: Test B pre/postemergence wheat; format: in vivo, Triticum aestivum
How it was run: as §2

[13] = test system: wild oat; experiment: Test B pre/postemergence wild oat; format: in vivo, Avena fatua
How it was run: as §2

[14] = test system: velvetleaf; experiment: Test B pre/postemergence velvetleaf; format: in vivo, Abutilon theophrasti
How it was run: as §2

[15] = test system: bedstraw; experiment: Test B pre/postemergence bedstraw; format: in vivo, Galium aparine
How it was run: as §2

[16] = test system: smallflower flatsedge; experiment: Test B flood test smallflower flatsedge; format: in vivo, Cyperus difformis
How it was run: as §1

[17] = test system: corn; experiment: Test B pre/postemergence corn; format: in vivo, Zea mays
How it was run: as §2

[18] = Postemergence, Rate 62 g/ha, scale 0 to 10, 0 is no effect, 10 is complete control
[19] = Rate 125 g/ha, Postemergence section (flood test species), scale 0 to 10, 0 no effect, 10 complete control
[20] = Rate 500 g/ha, listed under Postemergence (flood test species), scale 0 to 10, 0 no effect, 10 complete control
[21] = flood test, listed under Postemergence, Rate 250 g/ha, scale 0 to 10, 0 no effect, 10 complete control
[22] = Postemergence, Rate 250 g/ha, scale 0 to 10, 0 no effect, 10 complete control
[23] = Preemergence, Rate 62 g/ha, scale 0 to 10 (0 no effect, 10 complete control)
[24] = Preemergence, Rate 125 g/ha, scale 0 to 10 (0 no effect, 10 complete control)
[25] = Preemergence, Rate 250 g/ha, scale of 0 to 10 where 0 is no effect and 10 is complete control
[26] = Preemergence, Rate 500 g/ha, scale 0 (no effect) to 10 (complete control)
[27] = Rate 125 g/ha, Postemergence, scale 0 to 10, 0 no effect, 10 complete control
[28] = Rate 500 g/ha, Postemergence, scale 0 to 10, 0 no effect, 10 complete control

SMILES: CCN(C(=O)n1oc(=O)n(-c2c(C)cc(C)cc2C)c1=O)C1CCCCC1 [Compound 63]
- Ducksalad plant response rating [1, 18]: 0
- Ducksalad plant response rating [1, 19]: 0
- Ducksalad plant response rating [1, 20]: 0
- Ducksalad plant response rating [1, 21]: 0
- Blackgrass plant response rating [2, 18]: 0
- Blackgrass plant response rating [2, 22]: 0
- Blackgrass plant response rating [2, 23]: 0
- Plant response rating, Blackgrass [2, 24]: 0
- Plant response rating, Blackgrass [2, 25]: 0
- Blackgrass plant response rating [2, 26]: 0
- Blackgrass plant response rating [2, 27]: 0
- Blackgrass plant response rating [2, 28]: 0
- B. signalgrass plant response rating [3, 18]: 0
- B. signalgrass plant response rating [3, 22]: 0
- B. signalgrass plant response rating [3, 23]: 0
- Plant response rating, B. signalgrass [3, 24]: 0
- Plant response rating, B. signalgrass [3, 25]: 0
- B. signalgrass plant response rating [3, 26]: 0
- B. signalgrass plant response rating [3, 27]: 0
- B. signalgrass plant response rating ([3]; Rate 500 g/ha, Postemergence, scale of 0 to 10 where 0 is no effect and 10 is complete control): 0
- Crabgrass plant response rating [4, 18]: 0
- Crabgrass plant response rating [4, 22]: 0
- Crabgrass plant response rating [4, 23]: 0
- Plant response rating, Crabgrass [4, 24]: 0
- Plant response rating, Crabgrass [4, 25]: 1
- Crabgrass plant response rating [4, 26]: 2
- Crabgrass plant response rating [4, 27]: 0
- Crabgrass plant response rating [4, 28]: 2
- Soybean plant response rating [5, 18]: 2
- Soybean plant response rating [5, 22]: 2
- Soybean plant response rating [5, 23]: 0
- Plant response rating, Soybean [5, 24]: 0
- Plant response rating, Soybean [5, 25]: 0
- Soybean plant response rating [5, 26]: 0
- Soybean plant response rating [5, 27]: 2
- Soybean plant response rating [5, 28]: 3
- Giant foxtail plant response rating [6, 18]: 0
- Giant foxtail plant response rating [6, 22]: 0
- Giant foxtail plant response rating [6, 23]: 0
- Plant response rating, Giant foxtail [6, 24]: 0
- Plant response rating, Giant foxtail [6, 25]: 2
- Giant foxtail plant response rating [6, 26]: 3
- Giant foxtail plant response rating [6, 27]: 0
- Giant foxtail plant response rating [6, 28]: 2
- Cocklebur plant response rating [7, 18]: 0
- Cocklebur plant response rating [7, 22]: 0
- Cocklebur plant response rating [7, 23]: 0
- Plant response rating, Cocklebur [7, 24]: 0
- Plant response rating, Cocklebur [7, 25]: 0
- Cocklebur plant response rating [7, 26]: 0
- Cocklebur plant response rating [7, 27]: 0
- Cocklebur plant response rating [7, 28]: 0
- Nutsedge plant response rating [8, 18]: 0
- Nutsedge plant response rating [8, 22]: 2
- Nutsedge plant response rating [8, 23]: 0
- Plant response rating, Nutsedge [8, 24]: 0
- Plant response rating, Nutsedge [8, 25]: 0
- Nutsedge plant response rating [8, 26]: 6
- Nutsedge plant response rating [8, 27]: 0
- Nutsedge plant response rating [8, 28]: 2
- Rice plant response rating [9, 18]: 0
- Rice plant response rating [9, 19]: 0
- Rice plant response rating [9, 20]: 0
- Rice plant response rating [9, 21]: 0
- Barnyardgrass plant response rating [10, 18]: 0
- Barnyardgrass plant response rating [10, 19]: 0
- Barnyardgrass plant response rating [10, 20]: 0
- Barnyardgrass plant response rating [10, 21]: 0
- Morningglory plant response rating [11, 18]: 0
- Morningglory plant response rating [11, 22]: 4
- Morningglory plant response rating [11, 23]: 0
- Plant response rating, Morningglory [11, 24]: 0
- Plant response rating, Morningglory [11, 25]: 0
- Morningglory plant response rating [11, 26]: 0
- Morningglory plant response rating [11, 27]: 2
- Morningglory plant response rating [11, 28]: 4
- Wheat plant response rating [12, 18]: 0
- Wheat plant response rating [12, 22]: 0
- Wheat plant response rating [12, 23]: 0
- Plant response rating, Wheat [12, 24]: 0
- Plant response rating, Wheat [12, 25]: 0
- Wheat plant response rating [12, 26]: 0
- Wheat plant response rating [12, 27]: 0
- Wheat plant response rating [12, 28]: 2
- Wild oats plant response rating [13, 18]: 0
- Wild oats plant response rating [13, 22]: 0
- Wild oats plant response rating [13, 23]: 0
- Plant response rating, Wild oats [13, 24]: 0
- Plant response rating, Wild oats [13, 25]: 0
- Wild oats plant response rating [13, 26]: 0
- Wild oats plant response rating [13, 27]: 0
- Wild oats plant response rating [13, 28]: 2
- Velvetleaf plant response rating [14, 18]: 3
- Velvetleaf plant response rating [14, 22]: 5
- Velvetleaf plant response rating [14, 23]: 0
- Plant response rating, Velvetleaf [14, 24]: 0
- Plant response rating, Velvetleaf [14, 25]: 2
- Velvetleaf plant response rating [14, 26]: 3
- Velvetleaf plant response rating [14, 27]: 3
- Velvetleaf plant response rating [14, 28]: 5
- Bedstraw plant response rating [15, 18]: 0
- Bedstraw plant response rating [15, 22]: 3
- Bedstraw plant response rating [15, 23]: 0
- Plant response rating, Bedstraw [15, 24]: 0
- Plant response rating, Bedstraw [15, 25]: 0
- Bedstraw plant response rating [15, 26]: 3
- Bedstraw plant response rating [15, 27]: 0
- S. Flatsedge plant response rating [16, 18]: 0
- S. Flatsedge plant response rating [16, 19]: 0
- S. Flatsedge plant response rating [16, 20]: 0
- S. Flatsedge plant response rating [16, 21]: 0
- Corn plant response rating [17, 18]: 0
- Corn plant response rating [17, 22]: 2
- Corn plant response rating [17, 23]: 0
- Plant response rating, Corn [17, 24]: 0
- Plant response rating, Corn [17, 25]: 0
- Corn plant response rating [17, 26]: 0
- Corn plant response rating [17, 27]: 0
- Corn plant response rating [17, 28]: 2
